The text below walks through data of patent publication US11426367B2, “Methods of treating substance abuse” (Perception Neuroscience, Inc., priority 2018, dated 2022).

The test system of data set [1] is rewarding effects of morphine. Particulars: Table 11, Suzuki et al., 2000; cited from earlier work.
In data set [2] the test system is medial forebrain bundle self-stimulation in rats. The settings on record: doses 5.6, 10 mg/kg, Hillhouse et al., 2014; cited from earlier work.
The subject of the next data set is patients with depression. The settings on record: oral; Non Patent Literatures 15 and 16; cited from earlier work.
The subject of a further data set is Morphine Seizures. The settings on record: Not blocked by naloxone; Kolesnikov et al., 1997; cited from earlier work.
Data set [3] concerns development of drug tolerance to ethanol. Particulars: tilt-plane test, Khanna et al., 1993; cited from earlier work.
A further data set has as its system Control C57/B6 mice. The data set is described as follows: Conditioned place preference test (dependence test) in control mice. Particulars: control mice, 10 mg/kg.
In data set [4] the test system is medial forebrain bundle self-stimulation in rats. The data set is described as follows: Intracranial self-stimulation (ICSS), frequency-rate procedure. Particulars: for M50, Test, mean log M50 frequency (SEM) / Threshold (T0), Test, mean log T0 frequency (SEM) / M50, Baseline, mean log M50 frequency (SEM) / Threshold (T0), Baseline, mean log T0 frequency (SEM): 10 rats.

For data set [5], the system named is morphine withdrawal signs in rats. The data set is described as follows: Naloxone-precipitated withdrawal from subchronic morphine. The data set is classed as in vivo. Particulars: 0.25 mg/kg i.p. before naloxone 1 mg/kg SC, morphine 10 mg/kg SC b.i.d. On the procedure: Forty (40) male Wistar rats served as test subjects in this study. Animals were pair housed with unrestricted access to rodent chow and water (SOP ROD.03.01, SOP ROD.04.01, SOP ROD.18). […] All experimental activity occurring during the animals' light cycle. All animal use procedures were performed in accordance with the principles of the Canadian Council on Animal Care (CCAC).
Forty (40) male Wistar rats were assigned to 5 groups of N=8 rats per group. Group A was dosed with saline vehicle (Sal; subcutaneous (SC) route) twice daily (approx. 08:00±1 h and 18:00±1 h) for 12 days. […] This treatment regimen was designed to induce opioid dependence (Erami et al., 2012). […] On days 9 and 12, rats were tested for naloxone precipitated withdrawal. According to a cross-over design (see Table 4: Treatment Groups), all rats in each group received either acute saline, or naloxone hydrochloride (1 mg/kg; dose volume 2 ml/kg) injection by the SC route, 5 minutes prior to behavioral testing. […] Lofexidine doses are based on literature values (e.g. Shearman et al., 1979). Immediately after vehicle or naloxone injection, rats were transferred to activity chambers for 30 minutes where the animals were visually assessed for somatic signs associated with opioid withdrawal (e.g. writhes, chews, ptosis, WDS, shakes, tremor, penile grooming, body weight change; see Higgins and Sellers, 1994). Simultaneously, the activity pattern (distance travelled, rearing) of each rat was automatically recorded.
Locomotor activity. Spontaneous activity in the rats was measured with the automated Med Associates activity test chamber for 30 minutes with 10-minute time bins. The tracking arena was 17″W×17″L×12″H, sensor bars are secured 1″ above the floor to track distance travelled, and a second set of sensor bars are placed ˜5″ above the floor to measure vertical movement and rearing activity. The parameters set on the tracking software were as follows: resolution—50 milliseconds (ms), box size—4 beams, resting delay—500 ms, and ambulatory trigger—2 (SOP ROD.25). […]

Where [6] appears, read: 3 mg/kg i.p. 2 hours prior to test session.
Setting [7] is: 10 mg/kg i.p. 2 hours prior to test session.
Where [8] appears, read: 30 mg/kg i.p. 2 hours prior to test session.
[9] abbreviates: baseline session before dosing on the 3 mg/kg test day.
Where [10] appears, read: baseline session before dosing on the 10 mg/kg test day.
Where [11] appears, read: baseline session before dosing on the 30 mg/kg test day.

“Also recorded” adds a separate entry of the source.

Experimental for Control C57/B6 mice: 15-minute habituation was performed for 3 days. Then, 30-minute conditioning was performed on day 4 to day 10, and a behavioral evaluation test was performed on day 11. Saline was injected on day 5, day 7, and day 9. […] In each of the groups, the injection was performed three times, i.e., on day 4, day 6, and day 8. Saline means a group injected with saline.
The administration of an agent was performed by the same methods as the methods described in Example 2.
The place preference test was performed using a conditioned place preference test apparatus (BrainScienceIdea Co., Ltd., Osaka, Japan). The analysis of the results of the place preference test was performed by one-way analysis of variance (one-way ANOVA), followed by a least significant difference test (LSD test). Data are presented as the mean plus minus standard error of the mean (n=9 or 10 mice/group). *p<0.05 and **p<0.01 indicate significant differences as compared to a group injected with saline.

As for `CNC1(c2ccccc2Cl)CCCCC1=O` (racemic) [RS(+/−)-ketamine], the “Morphine CPP, dose blocking the rewarding effects of morphine” value in data set [1] is 10 mg/kg. Besides, in data set [2], the “ICSS, anhedonia” value is given as 5.6, 10 anhedonia. The “effective oral doses in patients with depression” value in the data set with patients with depression was 0.5 mg/kg. The “Morphine Seizures, dose” value in the data set on Morphine Seizures is listed as 0.3 mg/kg. Besides, the “Ethanol Tolerance, dose blocking development of tolerance” value in data set [3] is 1 - tilt-plane test mg/kg. Further, the “CPP score (conditioned place preference test)” value in the data set with Control C57/B6 mice is given as “significantly increased the CPP score”.
On to `COC(=O)[C@H]1[C@@H](OC(=O)c2ccccc2)C[C@@H]2CC[C@H]1N2C` [Cocaine, cocaine], for which, in data set [4] (rats, 10 mg/kg), the “ICSS frequency-rate response curve” value is “shifts the frequency curve to the left”.
As for `N[C@@]1(c2ccccc2Cl)CCC[C@@H](O)C1=O` [R-hydroxynorketamine], the “M50, Test, mean log M50 frequency (SEM)” value is 2.00 (0.01) log/Hz in data set [4] (setting [6]), 2.00 (0.01) log/Hz in data set [4] (setting [7]) and 1.99 (0.02) log/Hz in data set [4] (setting [8]). For the same molecule, the “Threshold (T0), Test, mean log T0 frequency (SEM)” value is 1.92 (0.02) log/Hz in data set [4] (setting [6]), 1.90 (0.02) log/Hz in data set [4] (setting [7]) and 1.91 (0.03) log/Hz in data set [4] (setting [8]). The figures for the “M50, Baseline, mean log M50 frequency (SEM)” value in data set [4] (setting [9]), in data set [4] (setting [10]) and in data set [4] (setting [11]) were 2.00 (0.02) log/Hz, 1.98 (0.01) log/Hz and 1.99 (0.02) log/Hz, respectively. Moreover, the figures for the “Threshold (T0), Baseline, mean log T0 frequency (SEM)” value in data set [4] (setting [9]), in data set [4] (setting [10]) and in data set [4] (setting [11]) were 1.89 (0.02) log/Hz, 1.89 (0.02) log/Hz and 1.90 (0.02) log/Hz, respectively. The “ICSS frequency-rate response curve” value in data set [4] (rats, 3, 10 or 30 mg/kg i.p. 2 hours prior to test session, vs saline vehicle) is “did not alter the frequency-response function”.
For `CC(Oc1c(Cl)cccc1Cl)C1=NCCN1` (stereo not drawn) [lofexidine, Lofexidine], in data set [5], the “overall morphine withdrawal scores (naloxone-precipitated withdrawal signs)” value is “significantly attenuated the naloxone-induced withdrawal signs; also recorded: effective”.
